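At the GI50, growth is halved. At the TGI there is no net growth.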
Key:
Assay in all cases: NCI tumour cell line growth inhibition, 384-well format; in the data active means GI50 below about 0.43 µM; inactive means the rest
[1] = system: SNB-19 CNS
[2] = system: A498 renal
[3] = system: OVCAR-3 ovarian
[4] = system: ACHN renal
[5] = system: NCI-H460 NSCLC
[6] = system: MDA-MB-468 breast
[7] = system: A549 NSCLC
[8] = system: T-47D breast
[9] = system: MDA-MB-231 breast
[10] = system: MOLT-4 leukemia
[11] = system: HCT-15 colon
[12] = system: RXF 393 renal
[13] = system: CCRF-CEM leukemia
[14] = system: HOP-62 NSCLC
[15] = system: SW-620 colon
[16] = system: MDA-MB-435 melanoma
[17] = system: NCI-H226 lung
[18] = system: MALME-3M melanoma
[19] = system: SN12C renal
[20] = system: M14 melanoma
[21] = system: NCI-H23 lung
[22] = system: SNB-75 CNS
[23] = system: EKVX NSCLC
[24] = system: NCI/ADR-RES ovarian
[25] = system: IGROV1 ovarian
[26] = system: SF-539 CNS
[27] = system: CAKI-1 renal
[28] = system: KM12 colon
[29] = system: U251 glioblastoma
[30] = system: SF-268 CNS
[31] = system: HCC-2998 colon
[32] = system: RPMI-8226 leukemia
[33] = system: NCI-H522 lung
[34] = system: COLO 205 colon
[35] = system: OVCAR-8 ovarian
[36] = system: HS 578T breast
[37] = system: OVCAR-4 ovarian
[38] = system: MCF7 breast
[39] = system: NCI-H322M lung
[40] = system: DU-145 prostate
[41] = system: HOP-92 NSCLC
[42] = system: UACC-62 melanoma
[43] = system: PC-3 prostate
[44] = system: TK-10 renal
[45] = system: K-562 leukemia
[46] = system: SK-OV-3 ovarian
[47] = system: SK-MEL-5 melanoma
[48] = system: BT-549 breast
[49] = system: LOX IMVI melanoma
[50] = system: UACC-257 melanoma
[51] = system: 786-0 renal
[52] = system: SR leukemia
[53] = system: HT29 colon
[54] = system: HCT-116 colon
[55] = system: UO-31 renal
[56] = system: SK-MEL-28 melanoma
[57] = system: HL-60(TB) leukemia
[58] = system: SF-295 CNS

Nc1nc(-n2cccn2)nc(-n2cccn2)c1Br
> 100 µM: TGI [1] | TGI [2] | TGI [3] | TGI [4] | TGI [5] | TGI [6] | TGI [7] | TGI [8] | TGI [9] | TGI [10] | TGI [11] | TGI [12] | TGI [13] | TGI [14] | TGI [15] | TGI [16] | TGI [17] | TGI [18] | TGI [19] | TGI [20] | TGI [21] | TGI [22] | TGI [23] | TGI [24] | TGI [25] | TGI [26] | TGI [27] | TGI [28] | TGI [29] | TGI [30] | TGI [31] | TGI [32] | TGI [33] | TGI [34] | TGI [35] | TGI [36] | TGI [37] | TGI [38] | TGI [39] | TGI [40] | TGI [41] | TGI [42] | TGI [43] | TGI [44] | TGI [45] | TGI [46] | TGI [47] | TGI [48] | TGI [49] | TGI [50] | TGI [51] | TGI [52] | TGI [53] | TGI [54] | TGI [55] | TGI [56] | TGI [57] | TGI [58]
inactive: GI50 [1] > 100 µM | GI50 [2] > 100 µM | GI50 [3] > 100 µM | GI50 [4] > 100 µM | GI50 [5] > 100 µM | GI50 [6] > 100 µM | GI50 [7] > 100 µM | GI50 [8] > 100 µM | GI50 [9] > 100 µM | GI50 [10] > 100 µM | GI50 [11] > 100 µM | GI50 [12] > 100 µM | GI50 [13] > 100 µM | GI50 [14] > 100 µM | GI50 [15] > 100 µM | GI50 [16] > 100 µM | GI50 [17] > 100 µM | GI50 [18] > 100 µM | GI50 [19] > 100 µM | GI50 [20] > 100 µM | GI50 [21] > 100 µM | GI50 [22] > 100 µM | GI50 [23] > 100 µM | GI50 [24] > 100 µM | GI50 [25] > 100 µM | GI50 [26] > 100 µM | GI50 [27] > 100 µM | GI50 [28] > 100 µM | GI50 [29] > 100 µM | GI50 [30] > 100 µM | GI50 [31] > 100 µM | GI50 [32] > 100 µM | GI50 [33] > 100 µM | GI50 [34] > 100 µM | GI50 [35] > 100 µM | GI50 [36] > 100 µM | GI50 [37] > 100 µM | GI50 [38] > 100 µM | GI50 [39] > 100 µM | GI50 [40] > 100 µM | GI50 [41] > 100 µM | GI50 [42] > 100 µM | GI50 [43] > 100 µM | GI50 [44] > 100 µM | GI50 [45] > 100 µM | GI50 [46] > 100 µM | GI50 [47] > 100 µM | GI50 [48] > 100 µM | GI50 [49] > 100 µM | GI50 [50] > 100 µM | GI50 [51] > 100 µM | GI50 [52] > 100 µM | GI50 [53] > 100 µM | GI50 [54] > 100 µM | GI50 [55] > 100 µM | GI50 [56] > 100 µM | GI50 [57] > 100 µM | GI50 [58] > 100 µM
